Key:
rodents = system: rodents; design: method as in Budzik et al., 2010; conditions: ref Budzik et al., 2010; cited from earlier work
M4 mAChR = target: T1, M4 mAChR (Homo sapiens, UniProt P08173); assay: ERK1/2 phosphorylation, CHO cells, M4; assay type: cell-based
T1 construct: expressed in transfected cells; host or cells: CHO

humanized M1 DREADD = target: T2, humanized M1 DREADD (Homo sapiens, UniProt P11229, A196G/Y106C); assay: IP1 accumulation and ERK1/2 phosphorylation at M1 DREADD, CHO Flp-In cells; assay type: cell-based
T2 construct: expressed in transfected cells; host or cells: CHO Flp-In

human M1 mAChR [1] = target: T3, human M1 mAChR (Homo sapiens, UniProt P11229); assay: Equilibrium [3H]-NMS binding, CHO Flp-In cell monolayers, wild-type M1; design: expressed in transfected cells; host or cells: CHO Flp-In
T3 sequence (P11229 1-460): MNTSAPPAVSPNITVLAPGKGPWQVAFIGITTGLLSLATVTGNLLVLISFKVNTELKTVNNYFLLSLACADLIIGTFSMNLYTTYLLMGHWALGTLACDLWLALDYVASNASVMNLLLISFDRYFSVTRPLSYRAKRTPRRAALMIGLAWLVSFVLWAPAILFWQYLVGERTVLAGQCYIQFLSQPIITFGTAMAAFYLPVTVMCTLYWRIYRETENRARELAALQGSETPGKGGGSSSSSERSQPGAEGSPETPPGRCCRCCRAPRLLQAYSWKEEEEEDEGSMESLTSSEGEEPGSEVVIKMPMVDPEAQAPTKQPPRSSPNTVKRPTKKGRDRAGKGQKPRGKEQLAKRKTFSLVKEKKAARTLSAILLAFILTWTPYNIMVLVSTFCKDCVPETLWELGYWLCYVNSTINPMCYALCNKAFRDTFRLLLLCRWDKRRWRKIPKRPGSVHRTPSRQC
Method: Prior to the experiment, cells were washed with 100 μl phosphate-buffered saline. […] Binding was terminated by rapid aspiration followed by two washes with 200 μl ice-cold 0.9% NaCl. Bound radioactivity was determined by liquid scintillation (Ultima Gold; PerkinElmer, Boston, MA) counting. Nonspecific binding was determined in the presence of 10 μM atropine.
(§1) Inhibition binding data were curve-fit using GraphPad Prism 6 to derive the potency (IC50) of the test compound. The equilibrium dissociation constant (KI) of the test compound was then calculated with the Cheng–Prusoff equation: KI = IC50/[1 + ([L]/KD)] using the KD value derived separately from saturation binding studies.

human M1 mAChR [2] = target: T3, human M1 mAChR; conditions: 20 nM [^3H]-GSK1034702
wild-type M1 mAChR = target: T4, wild-type M1 mAChR (Homo sapiens, UniProt P11229); assay: Receptor phosphorylation at serine 228, M1 wild type, CHO Flp-In cells; assay type: cell-based
T4 construct: HA; expressed in transfected cells; host or cells: CHO Flp-In

[3] = Mouse pharmacokinetics, unbound plasma and brain concentrations; assay type: in vivo; conditions: mice, 30 minutes after i.p. administration
Method: Pharmacokinetic analyses were conducted as previously described ([Witkin et al., 2017]). Compounds were administered via intraperitoneal injection (in 5% glucose) 30 minutes prior to blood collection. Mice were anesthetized with 3% isoflurane (2 l/min), and blood was collected by cardiac puncture of the left ventricle. Blood was immediately transferred to EDTA tubes and centrifuged at 1000g for 10 minutes at 4°C; the supernatant was collected and frozen. Brains from each mouse were also dissected and snap-frozen on dry ice.
Brain samples were homogenized in three volumes of methanol/water [1:4 (v/v)] by weight. A 25-μl aliquot of each study sample, calibration standard, and control sample was added to a 96-well plate and mixed with 180 μl acetonitrile/methanol [1:1 (v/v)] containing internal standard. The samples were subsequently centrifuged, and the resulting supernatants were diluted 12.5-fold with methanol/water [1:1 (v/v)] prior to analyzing 10-μl aliquots by liquid chromatography–tandem mass spectrometry as previously described ([Bradley et al., 2017]).

M2 mAChR = target: T5, M2 mAChR (Homo sapiens, UniProt P08172); assay: ERK1/2 phosphorylation, CHO cells, M2; assay type: cell-based
T5 construct: expressed in transfected cells; host or cells: CHO

human mAChR M3 = target: T6, human mAChR M3 (Homo sapiens, UniProt P20309); assay: [3H]-NMS competition binding, CHO membranes, M3; conditions: compared with other subtypes
T6 construct: purchased PerkinElmer; host or cells: CHO
Method: (§2) For competition binding experiments at M1, M2, M3, M4, and M5 mAChRs, CHO membranes were purchased from PerkinElmer. All experiments were performed in assay buffer of the following composition: 20 mM HEPES, 100 mM NaCl, and 10 mM MgCl2, pH 7.5, and used 10 µg protein/well in a total assay volume of 1 ml using deep well blocks. […] All assay incubations were initiated by the addition of membrane suspensions and deep well blocks were shaken for 5 minutes to ensure complete mixing. Incubation was then carried out for 2 hours at 21°C. Binding reactions were terminated by rapid filtration through GF/A filters (PerkinElmer) presoaked with 0.5% (w/v) polyethylenimine for 1 hour. Filters were then washed three times with 1 ml ice-cold assay buffer.
as §1

[4] = target: T7, M3 mAChR (isolated rat ileum) (Rattus norvegicus, UniProt P08483); assay: Isolated rat ileum contraction; conditions: single experiment
T7 construct: from tissue; host or cells: ileum of adult Wistar rats
Method: Adult Wistar rats were humanely euthanized and the left atria and the ileum were placed in an organ bath containing oxygenated Tyrode solution. Measurement of negative inotropic responses in atria or contraction of ileum was performed as described by [Lambrecht et al. (1989)]. For atrial responses, ligands were administered for 5 minutes at 32°C in McEwen’s buffer (pH 7.4) in a bath volume of 10 ml. […] For rat ileum experiments, ligands were administered for 5 minutes at 32°C in Krebs’ buffer (pH 7.4) in a bath volume of 10 ml. Contraction of ileum as a percentage of methacholine-induced contraction was measured, and antagonistic effects were measured by inhibition of methacholine-induced responses.

human mAChR M5 = target: T8, human mAChR M5 (Homo sapiens, UniProt P08912); assay: [3H]-NMS competition binding, CHO membranes, M5
T8 construct: purchased PerkinElmer; host or cells: CHO
Method: as §2, §1

human M1 mAChR [5] = target: T3, human M1 mAChR; assay: Kinetic [3H]-NMS binding (dissociation) in membranes; design: expressed in transfected cells; host or cells: CHO Flp-In; conditions: compound 10 μM plus atropine 10 μM
Method: Reactions were terminated by rapid filtration onto GF/B filter paper (Whatman, Maidstone, UK) and three washes with 3 ml ice-cold 0.9% NaCl using a Brandel harvester (M-24TI; Brandel, Fort Lauderdale, FL). Membrane bound radioactivity was determined by liquid scintillation (Ultima Gold; PerkinElmer) counting.

M3 mAChR = target: T9, M3 mAChR (Homo sapiens, UniProt P20309); assay: ERK1/2 phosphorylation, CHO cells, M3; assay type: cell-based
T9 construct: expressed in transfected cells; host or cells: CHO
T9 sequence (P20309 whole entry): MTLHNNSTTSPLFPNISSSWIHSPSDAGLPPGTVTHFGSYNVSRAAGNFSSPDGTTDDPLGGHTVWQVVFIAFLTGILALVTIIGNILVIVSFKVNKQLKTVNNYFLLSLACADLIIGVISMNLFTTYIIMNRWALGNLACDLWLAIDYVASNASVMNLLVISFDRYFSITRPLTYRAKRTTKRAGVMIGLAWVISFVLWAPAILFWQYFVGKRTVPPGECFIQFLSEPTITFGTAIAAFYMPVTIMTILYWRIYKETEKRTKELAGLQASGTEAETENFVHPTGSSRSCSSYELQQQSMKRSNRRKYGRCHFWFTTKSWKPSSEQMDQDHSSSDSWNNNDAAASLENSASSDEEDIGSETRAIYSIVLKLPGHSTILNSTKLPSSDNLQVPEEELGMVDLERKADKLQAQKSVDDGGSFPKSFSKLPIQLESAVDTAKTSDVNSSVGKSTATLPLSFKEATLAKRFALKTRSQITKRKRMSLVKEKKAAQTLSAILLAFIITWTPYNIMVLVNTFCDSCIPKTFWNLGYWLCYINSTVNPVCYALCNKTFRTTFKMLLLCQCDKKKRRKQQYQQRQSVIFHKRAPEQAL

T7 sequence (P08483 whole entry): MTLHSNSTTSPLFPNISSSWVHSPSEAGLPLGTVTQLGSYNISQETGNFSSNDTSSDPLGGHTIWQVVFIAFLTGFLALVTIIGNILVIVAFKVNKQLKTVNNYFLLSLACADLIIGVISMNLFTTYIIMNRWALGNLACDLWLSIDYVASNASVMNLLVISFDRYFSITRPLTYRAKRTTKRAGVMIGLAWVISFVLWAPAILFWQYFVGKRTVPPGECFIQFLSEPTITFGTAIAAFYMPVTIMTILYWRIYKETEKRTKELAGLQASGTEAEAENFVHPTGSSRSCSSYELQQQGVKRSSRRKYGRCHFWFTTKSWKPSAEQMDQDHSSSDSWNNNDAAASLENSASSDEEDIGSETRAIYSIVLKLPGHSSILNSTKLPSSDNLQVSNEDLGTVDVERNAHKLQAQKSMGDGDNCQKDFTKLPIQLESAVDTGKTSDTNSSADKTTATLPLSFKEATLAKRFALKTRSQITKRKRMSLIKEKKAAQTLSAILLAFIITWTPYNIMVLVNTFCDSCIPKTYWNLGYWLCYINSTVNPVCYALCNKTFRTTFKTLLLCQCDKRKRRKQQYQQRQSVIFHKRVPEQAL
T1 sequence (P08173 whole entry): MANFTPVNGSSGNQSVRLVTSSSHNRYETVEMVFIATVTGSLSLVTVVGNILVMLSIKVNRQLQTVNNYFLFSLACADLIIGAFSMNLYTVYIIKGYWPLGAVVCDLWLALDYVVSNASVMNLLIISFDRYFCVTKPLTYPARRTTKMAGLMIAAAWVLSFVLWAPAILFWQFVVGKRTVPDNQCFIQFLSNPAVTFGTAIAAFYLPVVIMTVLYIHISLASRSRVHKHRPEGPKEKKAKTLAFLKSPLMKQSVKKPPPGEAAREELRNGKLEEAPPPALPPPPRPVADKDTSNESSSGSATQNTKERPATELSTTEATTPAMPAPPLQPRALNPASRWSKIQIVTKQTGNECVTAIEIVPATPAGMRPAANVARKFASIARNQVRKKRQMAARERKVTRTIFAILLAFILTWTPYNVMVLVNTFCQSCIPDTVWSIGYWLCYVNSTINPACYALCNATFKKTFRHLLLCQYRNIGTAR
T8 sequence (P08912 whole entry): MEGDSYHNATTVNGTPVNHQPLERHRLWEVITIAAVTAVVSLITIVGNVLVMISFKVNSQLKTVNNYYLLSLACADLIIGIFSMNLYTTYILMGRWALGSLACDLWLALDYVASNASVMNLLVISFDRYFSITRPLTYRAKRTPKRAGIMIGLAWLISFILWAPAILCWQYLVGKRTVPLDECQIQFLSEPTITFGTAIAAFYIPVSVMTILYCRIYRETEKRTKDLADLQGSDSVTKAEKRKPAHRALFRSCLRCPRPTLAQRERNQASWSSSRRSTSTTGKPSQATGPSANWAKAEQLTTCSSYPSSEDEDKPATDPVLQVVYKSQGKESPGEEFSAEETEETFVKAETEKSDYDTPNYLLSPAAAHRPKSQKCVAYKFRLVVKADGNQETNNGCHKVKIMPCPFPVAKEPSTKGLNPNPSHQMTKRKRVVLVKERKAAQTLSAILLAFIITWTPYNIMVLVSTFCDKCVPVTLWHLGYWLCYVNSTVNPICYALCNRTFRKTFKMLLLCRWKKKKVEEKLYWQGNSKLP
T2 sequence (P11229 whole entry Y106C/A196G): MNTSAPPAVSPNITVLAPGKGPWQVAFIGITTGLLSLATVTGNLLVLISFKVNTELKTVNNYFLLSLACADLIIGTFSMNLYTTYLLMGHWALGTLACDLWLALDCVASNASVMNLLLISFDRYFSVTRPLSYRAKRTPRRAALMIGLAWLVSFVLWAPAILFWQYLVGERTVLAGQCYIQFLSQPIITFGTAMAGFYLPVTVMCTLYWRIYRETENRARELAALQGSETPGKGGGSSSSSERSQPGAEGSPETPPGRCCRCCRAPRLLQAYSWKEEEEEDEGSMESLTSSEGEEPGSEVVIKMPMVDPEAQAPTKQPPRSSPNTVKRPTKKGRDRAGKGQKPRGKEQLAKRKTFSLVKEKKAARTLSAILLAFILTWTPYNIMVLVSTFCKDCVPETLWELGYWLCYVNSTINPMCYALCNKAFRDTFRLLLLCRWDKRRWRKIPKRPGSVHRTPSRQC
T6 sequence (P20309 whole entry): as the sequence (P20309 whole entry) above
T5 sequence (P08172 whole entry): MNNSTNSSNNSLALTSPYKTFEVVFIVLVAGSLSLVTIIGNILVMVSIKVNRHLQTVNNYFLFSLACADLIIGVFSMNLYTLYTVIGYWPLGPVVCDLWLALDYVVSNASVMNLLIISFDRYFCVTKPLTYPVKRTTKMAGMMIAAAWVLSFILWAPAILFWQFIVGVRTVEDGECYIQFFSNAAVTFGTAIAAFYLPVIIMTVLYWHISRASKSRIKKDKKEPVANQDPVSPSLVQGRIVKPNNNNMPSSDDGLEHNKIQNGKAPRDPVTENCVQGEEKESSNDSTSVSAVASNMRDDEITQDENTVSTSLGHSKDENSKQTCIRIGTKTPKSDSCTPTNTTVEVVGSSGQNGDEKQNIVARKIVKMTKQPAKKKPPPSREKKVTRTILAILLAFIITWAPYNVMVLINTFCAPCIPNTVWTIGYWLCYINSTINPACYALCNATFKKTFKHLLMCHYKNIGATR

Compound: Cc1cc(F)c2[nH]c(=O)n(C3CCN(C4CCOCC4)CC3)c2c1 [GSK1034702, 7-fluoro-5-methyl-3-[1-(oxan-4-yl)piperidin-4-yl]-1H-benzimidazol-2-one]
- effect on scopolamine-induced amnesia (rodents): reversed scopolamine-induced amnesia
- functional activity in ERK1/2 phosphorylation (M4 mAChR): partial agonist activity
- potency and efficacy at the M1 DREADD compared with the wild-type receptor (humanized M1 DREADD): comparable potency and efficacy
- Ki (human M1 mAChR [1]): 316 nM
- inhibition of [^3H]-NMS binding (human M1 mAChR [1]; [^3H]-NMS 0.5 nM, CHO Flp-In cell monolayers): fully inhibited
- displacement of specific [^3H]-GSK1034702 binding (human M1 mAChR [2]): fully displaced
- pSer228 immunoreactivity (wild-type M1 mAChR): concentration-dependent increase
- free brain concentration versus dose [3]: increase linearly with escalating doses
- functional activity in ERK1/2 phosphorylation (M2 mAChR): partial agonist activity
- affinity for the M3 mAChR (human mAChR M3): much lower affinity
- EC50 [4]: 7 µM
- rat ileum contraction, % of maximal methacholine-induced contraction [4]: approximately 50%
- IC50 ([4]; read-out: IC50, inhibition of methacholine-induced contraction of rat ileum): 46 µM
- Ki (human mAChR M5): 6.31 µM
- effect on the [^3H]-NMS dissociation rate (human M1 mAChR [5]): no effect
- functional activity in ERK1/2 phosphorylation (M3 mAChR): devoid of activity
